Test results reported in the supplement of paper PMC10307832.

How the values were obtained:
Test in all cases: relative viability (nuclei count vs DMSO), 5 days (fraction); higher = more cells survive
MIM1 = compound: CC1=CSC(=NC2CCCCC2)N1/N=C/C3=C(C(=C(C=C3)O)O)O [MIM1]
In short: (§1)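 Viability was defined as treated-well nuclei divided by vehicle-well nuclei, with the median taken over replicate plates. Cells from lung cancer lines sat overnight at 37 °C in 1536-well plates, received five √10-spaced library-drug doses by pinning on vehicle-anchored plates, and grew 5 days without medium change before one-step fixation, permeabilisation and Hoechst staining, 4× imaging and MetaXpress nuclear counts. Only plates with control CV under 25% and at least one doubling were kept.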

Luminespib = compound: CCNC(=O)c1noc(-c2cc(C(C)C)c(O)cc2O)c1-c1ccc(CN2CCOCC2)cc1 [Luminespib]
In short: as §1

Saracatinib = compound: CN1CCN(CCOc2cc(OC3CCOCC3)c3c(Nc4c(Cl)ccc5c4OCO5)ncnc3c2)CC1 [Saracatinib]
In short: as §1

Nilotinib = compound: Cc1cn(-c2cc(NC(=O)c3ccc(C)c(Nc4nccc(-c5cccnc5)n4)c3)cc(C(F)(F)F)c2)cn1 [Nilotinib]
In short: as §1

Lenalidomide = compound: Nc1cccc2c1CN(C1CCC(=O)NC1=O)C2=O [Lenalidomide]
In short: as §1

Cell Line | relative viability (MIM1; 0.2 µM) | relative viability (MIM1; 0.6325 µM) | relative viability (MIM1; 2 µM) | relative viability (MIM1; 6.325 µM) | relative viability (MIM1; 20 µM) | relative viability (Luminespib; 0.002 µM) | relative viability (Luminespib; 0.006325 µM) | relative viability (Luminespib; 0.01 µM, anchor plate) | relative viability (Luminespib; 0.02 µM) | relative viability (Luminespib; 0.06325 µM) | relative viability (Luminespib; 0.2 µM) | relative viability (Saracatinib; 0.02 µM) | relative viability (Saracatinib; 0.2 µM) | relative viability (Saracatinib; 0.6325 µM) | relative viability (Saracatinib; 2 µM) | relative viability (Nilotinib; 0.001 µM) | relative viability (Nilotinib; 0.003162 µM) | relative viability (Nilotinib; 0.01 µM) | relative viability (Nilotinib; 0.03162 µM) | relative viability (Nilotinib; 0.1 µM) | relative viability (Lenalidomide; 0.253 µM) | relative viability (Lenalidomide; 0.8 µM) | relative viability (Lenalidomide; 2.53 µM) | relative viability (Lenalidomide; 8 µM)
NCI-H838 | 0.967 | 0.959 | 0.786 | 0.78 | 0.372 | 0.983 | 0.92 | 0.298 | 0.554 | 0.177 | 0.186 | 0.96 | 0.897 | 0.898 | 0.772 | 0.924 | 1.02 | 1.06 | 0.863 | 0.992 | 0.969 | 0.879 | 1.07 | 0.823
NCI-H1299 | 0.983 | 0.992 | 0.994 | 1.01 | 0.776 | 1.03 | 0.95 |  | 1.04 | 0.942 | 0.217 | 1.02 | 0.948 | 1.05 | 1 | 0.939 | 1.08 | 1.15 | 1.02 | 0.966 | 1.02 | 0.97 | 1.03 | 1.05
NCI-H1355 | 1 | 0.824 | 1.07 | 0.816 | 0.595 | 0.953 | 0.956 | 0.746 | 0.52 | 0.67 | 0.166 | 1.02 | 0.972 | 1.03 | 0.975 | 0.96 | 1.21 | 1.13 | 1.01 | 0.428 | 1 | 0.746 | 1.02 | 0.721
NCI-H1395 | 0.961 | 0.791 | 0.873 | 0.675 | 0.345 | 1.07 | 0.861 | 0.764 | 0.622 | 0.362 | 0.323 | 0.994 | 0.828 | 0.91 | 0.799 | 0.957 | 0.7 | 0.874 | 0.803 | 0.542 | 0.997 |  | 1.02 | 0.846
NCI-H1437 | 0.956 | 0.927 | 1 | 0.714 | 0.273 | 0.977 | 0.943 | 1.12 | 1.02 | 0.743 | 0.26 | 1.02 | 1.02 | 1.04 | 0.971 | 0.955 | 0.988 | 1.12 | 0.868 | 0.958 | 1.02 | 0.939 | 1.05 | 1.01
NCI-H1563 | 1.09 | 1.02 | 0.993 | 0.903 | 0.542 | 0.984 | 0.985 | 0.508 | 0.794 | 0.503 | 0.49 | 1.04 | 0.894 | 0.804 | 0.728 | 0.956 | 1.03 | 0.971 | 0.869 | 1.02 | 0.932 | 1.01 | 1.11 | 0.846
NCI-H1623 | 0.922 | 0.965 | 1.03 | 0.945 | 0.46 | 1.02 | 0.959 | 0.529 | 0.712 | 0.716 | 0.302 | 0.993 | 0.852 | 1.11 | 0.67 | 1.1 | 0.885 | 1.08 | 0.889 | 0.927 | 1.08 | 0.932 | 1.05 | 0.869
NCI-H1648 | 1.01 | 0.929 | 0.989 | 0.635 | 0.283 | 0.671 | 0.811 |  | 0.837 | 0.742 | 0.413 | 0.895 | 0.553 | 1.52 | 0.727 | 0.79 | 0.738 | 0.829 | 0.605 | 0.757 | 0.93 | 0.732 | 1.29 | 0.705
NCI-H1650 | 0.908 | 0.949 | 0.654 | 0.189 | 0.148 | 1.02 | 0.823 | 0.199 | 0.228 | 0.122 | 0.138 | 0.814 | 0.689 | 0.737 | 0.581 | 0.912 | 1.22 | 1.12 | 0.931 | 0.598 | 0.828 | 0.857 | 1.23 | 1.12
NCI-H1651 | 0.983 | 0.959 | 0.932 | 0.896 | 0.799 | 0.979 | 0.934 | 0.86 | 0.818 | 0.738 | 0.351 | 1 | 0.887 | 1.07 | 0.937 | 0.94 | 1.09 | 1.14 | 0.905 | 0.676 | 0.972 | 0.984 | 1.14 | 0.904
NCI-H1666 | 1.03 | 0.966 | 0.945 | 0.802 | 0.564 | 1.05 | 0.937 | 1.03 | 1.01 | 0.956 | 0.838 | 1.02 | 0.942 | 1.27 | 1.17 | 0.934 | 0.989 | 1.06 | 0.918 | 1.01 | 1.02 | 0.745 | 1.1 | 1.05
NCI-H1703 | 0.897 | 1 | 0.878 | 0.205 | 0.133 | 1.12 | 0.899 |  | 0.708 | 0.134 | 0.14 | 0.93 | 0.772 | 0.448 | 0.326 | 0.795 | 0.684 | 0.538 | 0.286 |  | 0.991 | 0.923 | 1.01 | 0.904
NCI-H1734 | 1.02 | 0.871 | 0.953 | 0.476 | 0.182 | 0.999 | 0.902 | 0.198 | 0.634 | 0.159 | 0.15 | 1.06 |  | 0.86 | 0.783 | 0.918 | 1.14 | 1.21 | 0.687 | 0.402 | 1.01 | 1.07 | 1.09 | 0.798
NCI-H1755 | 1 | 0.956 | 1.01 | 0.816 | 0.308 | 0.996 | 0.987 | 0.355 | 0.979 | 0.818 | 0.225 | 0.953 | 0.859 | 0.957 | 0.88 | 0.974 | 1.08 | 1.03 | 0.832 | 0.828 | 0.976 | 0.986 | 1.07 | 0.879
